The values below come from publication PMC9933483, “Tail-Approach-Based Design and Synthesis of Coumarin-Monoterpenes as Carbonic Anhydrase Inhibitors and Anticancer Agents” (ACS Omega, 2023).

In one assay the test system is HT-29 cell line. Put plainly: Cell cytotoxicity, MTT assay. It counts as cell-based, human. To be noted: Homo sapiens, HT-29; MTT, 24 h. On the technique in general: Tetrazolium dyes change colour on reduction, which living cells bring about.
The next assay deals with MCF-7 cell line. Put plainly: Cell cytotoxicity, MTT assay. It is filed as cell-based, human.
The test system of a further assay is PC-3 cell line. Put plainly: Cell cytotoxicity, MTT assay. It is filed as cell-based. To be noted: Homo sapiens, 24 h.
A further assay relates to HEK293T cell line. Put plainly: Cell cytotoxicity, MTT assay. It counts as cell-based. To be noted: Homo sapiens, HEK-293T, 24 h, healthy cell line.
The target in the next assay is hCA IX (Homo sapiens, UniProt Q16790). Put plainly: biochemical.

Take `C=CCc1ccc(OCc2cn(CCCCCCOc3ccc4ccc(=O)oc4c3)nn2)c(OC)c1` [Compound 31, 7-((6-(4-((4-Allyl-2-methoxyphenoxy)methyl)-1H-1,2,3-triazol-1-yl)hexyl)oxy)-2H-chromen-2-one]: the IC50 in the assay with HT-29 cell line is 45.2 ± 13.1 µM; with MCF-7 cell line (Homo sapiens, MCF7, 24 h), 16.8 ± 9.71 µM; with PC-3 cell line, above 200 µM; in the assay on HEK293T cell line it was 15.2 ± 1.06 µM.

In turn, `CC1CCC(C(C)C)C(OCc2cn(CCCCCCCCCOc3ccc4ccc(=O)oc4c3)nn2)C1` (stereo not drawn) [Compound 41, 7-((9-(4-(((2-Isopropyl-5-methylcyclohexyl)oxy)methyl)-1H-1,2,3-triazol-1-yl)nonyl)oxy)-2H-chromen-2-one] had an IC50 in the assay on HT-29 cell line of 44.7 ± 15.1 µM. In addition, the affinity at hCA IX corresponds to a Ki of 0.204 µM.

In the assay with HT-29 cell line, `Cc1ccc(C(C)C)cc1OCc1cn(CCOc2ccc3ccc(=O)oc3c2)nn1` [Compound 20, 7-(2-(4-((5-Isopropyl-2-methylphenoxy)methyl)-1H-1,2,3-triazol-1-yl)ethoxy)-2H-chromen-2-one] had an IC50 of 25.9 ± 7.94 µM.

As for `Cc1ccc(C(C)C)cc1OCCCCCCCCCOc1ccc2ccc(=O)oc2c1` [Compound 57, 7-((9-(5-Isopropyl-2-methylphenoxy)nonyl)oxy)-2H-chromen-2-one], the IC50 in the assay on HT-29 cell line is above 200 µM.

With `COc1cccc2c1C(=O)c1c(O)c3c(c(O)c1C2=O)C[C@@](O)(C(=O)CO)C[C@@H]3O[C@H]1C[C@H](N)[C@H](O)[C@H](C)O1` [Dox, doxorubicin, reference compound], the half-maximal inhibitory concentration (IC50) in the assay on HT-29 cell line turned out to be 7.41 ± 1.9 µM; in the assay with MCF-7 cell line (Homo sapiens, MCF7, 24 h), 0.64 ± 0.11 µM; with PC-3 cell line, 4.48 ± 1.08 µM; in the assay on HEK293T cell line it was 2.03 ± 0.12 µM.

For the compound `CC1CCC(C(C)C)C(OCc2cn(CCCCCCCCCCOc3ccc4ccc(=O)oc4c3)nn2)C1` (stereo not drawn) [Compound 42, 7-((10-(4-(((2-Isopropyl-5-methylcyclohexyl)oxy)methyl)-1H-1,2,3-triazol-1-yl)decyl)oxy)-2H-chromen-2-one], the IC50 was 32.9 ± 8.54 µM in the assay on HT-29 cell line; above 200 µM in the assay on MCF-7 cell line (Homo sapiens, MCF7, 24 h); 39.7 ± 17 µM in the assay with PC-3 cell line; 83.2 ± 28.1 µM with HEK293T cell line. For the same compound, the affinity at hCA IX, expressed as Ki, was 0.0019 µM.

As to `Cc1ccc(C(C)C)cc1OCc1cn(CCCCOc2ccc3ccc(=O)oc3c2)nn1` [Compound 22, 7-(4-(4-((5-Isopropyl-2-methylphenoxy)methyl)-1H-1,2,3-triazol-1-yl)butoxy)-2H-chromen-2-one], it took 37.4 ± 12.1 µM to reach half-maximal inhibition with HT-29 cell line (IC50).

For the compound `Cc1ccc(C(C)C)c(OCCCCCCCCCCCCOc2ccc3ccc(=O)oc3c2)c1` [Compound 51, 7-((12-(2-Isopropyl-5-methylphenoxy)dodecyl)oxy)-2H-chromen-2-one], the IC50 is above 200 µM in the assay with HT-29 cell line; 19.6 ± 3.14 µM in the assay on MCF-7 cell line (Homo sapiens, MCF7, 24 h); 62.8 ± 23.7 µM in the assay on PC-3 cell line; 50.1 ± 15.7 µM in the assay with HEK293T cell line. Also, the inhibitory constant (Ki) on hCA IX came out at 0.0383 µM.

As for `Cc1ccc(C(C)C)cc1OCCCOc1ccc2ccc(=O)oc2c1` [Compound 53, 7-(3-(5-Isopropyl-2-methylphenoxy)propoxy)-2H-chromen-2-one], the IC50 in the assay on HT-29 cell line was above 80 µM; with MCF-7 cell line (Homo sapiens, MCF7, 24 h) it was 30.8 ± 9.23 µM; in the assay on PC-3 cell line, above 200 µM; in the assay with HEK293T cell line, above 80 µM. At hCA IX, this compound displayed a Ki of 0.303 µM.

With `Cc1ccc(C(C)C)c(OCc2cn(CCCCCCCCCOc3ccc4ccc(=O)oc4c3)nn2)c1` [Compound 17, 7-((9-(4-((2-Isopropyl-5-methylphenoxy)methyl)-1H-1,2,3-triazol-1-yl)nonyl)oxy)-2H-chromen-2-one], the concentration for half-maximal inhibition (IC50) in the assay on HT-29 cell line was 28.5 ± 8.9 µM; in the assay on MCF-7 cell line (Homo sapiens, MCF7, 24 h), above 200 µM; in the assay with PC-3 cell line it was 12.5 ± 4.4 µM; in the assay with HEK293T cell line, above 200 µM. The compound further showed a Ki on hCA IX of 0.213 µM.

On to `CC1CCC(C(C)C)C(OCCCCOc2ccc3ccc(=O)oc3c2)C1` (stereo not drawn) [Compound 70, 7-(4-((2-Isopropyl-5-methylcyclohexyl)oxy)butoxy)-2H-chromen-2-one], for which the IC50 in the assay on HT-29 cell line came to 14.7 ± 2.81 µM; in the assay with MCF-7 cell line (24 h), 4.53 ± 1.06 µM; in the assay with MCF-7 cell line (Homo sapiens, MCF7, 24 h), 7.53 µM; in the assay with PC-3 cell line, 24.8 ± 5.35 µM; in the assay on HEK293T cell line, 63.5 ± 11.4 µM. Also, affinity at hCA IX was put at a Ki of 0.142 µM.

Turning to `Cc1ccc(C(C)C)c(OCCCCOc2ccc3ccc(=O)oc3c2)c1` [Compound 46, 7-(4-(2-Isopropyl-5-methylphenoxy)butoxy)-2H-chromen-2-one], the IC50 in the assay with HT-29 cell line was above 80 µM; with MCF-7 cell line (Homo sapiens, MCF7, 24 h), above 200 µM; with PC-3 cell line it was above 80 µM; with HEK293T cell line, above 80 µM. In addition, affinity on hCA IX was put at a Ki of 0.0824 µM.

As for `CC1CCC(C(C)C)C(OCCOc2ccc3ccc(=O)oc3c2)C1` (stereo not drawn) [Compound 68, 7-(2-((2-Isopropyl-5-methylcyclohexyl)oxy)ethoxy)-2H-chromen-2-one], in the assay with HT-29 cell line, the IC50 is 40.7 ± 7.5 µM.

For the compound `Cc1ccc(C(C)C)c(OCc2cn(CCCCCCOc3ccc4ccc(=O)oc4c3)nn2)c1` [Compound 15, 7-((6-(4-((2-Isopropyl-5-methylphenoxy)methyl)-1H-1,2,3-triazol-1-yl)hexyl)oxy)-2H-chromen-2-one], the half-inhibitory concentration (IC50) with HT-29 cell line turned out to be 30.1 ± 10.2 µM; in the assay with MCF-7 cell line (Homo sapiens, MCF7, 24 h), 143 ± 58.5 µM; with PC-3 cell line it was 48.4 ± 14.4 µM; with HEK293T cell line, 59.7 ± 12.3 µM.

As to `C=CCc1ccc(OCCCCOc2ccc3ccc(=O)oc3c2)c(OC)c1` [Compound 62, 7-(4-(4-Allyl-2-methoxyphenoxy)butoxy)-2H-chromen-2-one], the 50% inhibitory concentration (IC50) with HT-29 cell line was above 80 µM; in the assay with MCF-7 cell line (Homo sapiens, MCF7, 24 h) it was 11.3 ± 3.61 µM; with PC-3 cell line, 45.5 ± 26.5 µM; in the assay on HEK293T cell line it was 64.7 ± 20.1 µM. This compound also registered a Ki at hCA IX of 0.0313 µM.

`CC1CCC(C(C)C)C(OCCCCCCOc2ccc3ccc(=O)oc3c2)C1` (stereo not drawn) [Compound 71, 7-((6-((2-Isopropyl-5-methylcyclohexyl)oxy)hexyl)oxy)-2H-chromen-2-one]: the IC50 in the assay on HT-29 cell line came out at 18.6 ± 3.39 µM; with MCF-7 cell line (Homo sapiens, MCF7, 24 h) it was 30.7 ± 7.04 µM; with PC-3 cell line, 36 ± 9.49 µM; with HEK293T cell line it was 56.6 ± 10.5 µM.

For the compound `Cc1ccc(C(C)C)cc1OCCCCCCOc1ccc2ccc(=O)oc2c1` [Compound 55, 7-((6-(5-Isopropyl-2-methylphenoxy)hexyl)oxy)-2H-chromen-2-one], the IC50 was 63.29 ± 0.57 µM with HT-29 cell line; 16.4 ± 2.91 µM with MCF-7 cell line (Homo sapiens, MCF7, 24 h); 48.3 ± 14.1 µM in the assay on PC-3 cell line; above 80 µM in the assay with HEK293T cell line. Further, on hCA IX, the inhibitory constant (Ki) was found to be 0.0362 µM.

Consider `Cc1ccc(C(C)C)cc1OCc1cn(CCCOc2ccc3ccc(=O)oc3c2)nn1` [Compound 21, 7-(3-(4-((5-Isopropyl-2-methylphenoxy)methyl)-1H-1,2,3-triazol-1-yl)propoxy)-2H-chromen-2-one], for which the midpoint of inhibition in the assay with HT-29 cell line, the IC50, lay at 39.4 ± 15.8 µM.

Take `C=CCc1ccc(OCCCCCCCCCCCCOc2ccc3ccc(=O)oc3c2)c(OC)c1` [Compound 67, 7-((12-(4-Allyl-2-methoxyphenoxy)dodecyl)oxy)-2H-chromen-2-one]: the IC50 in the assay on HT-29 cell line is above 80 µM.

In the case of `Cc1ccc(C(C)C)c(OCCCCCCCCCOc2ccc3ccc(=O)oc3c2)c1` [Compound 49, 7-((9-(2-Isopropyl-5-methylphenoxy)nonyl)oxy)-2H-chromen-2-one], the IC50 with HT-29 cell line was above 200 µM. For the same compound, on hCA IX, the Ki turned out to be 0.123 µM.

Consider `CC1CCC(C(C)C)C(OCc2cn(CCCCCCCOc3ccc4ccc(=O)oc4c3)nn2)C1` (stereo not drawn) [Compound 40, 7-((7-(4-(((2-Isopropyl-5-methylcyclohexyl)oxy)methyl)-1H-1,2,3-triazol-1-yl)heptyl)oxy)-2H-chromen-2-one], for which inhibition in the assay on HT-29 cell line was half-maximal at 54.8 ± 19.1 µM (IC50).

As to `Cc1ccc(C(C)C)c(OCCCCCCCOc2ccc3ccc(=O)oc3c2)c1` [Compound 48, 7-((7-(2-Isopropyl-5-methylphenoxy)heptyl)oxy)-2H-chromen-2-one], in the assay on HT-29 cell line, the IC50 is above 200 µM. On hCA IX, this compound returned a Ki of 0.0368 µM.

Regarding `Cc1ccc(C(C)C)c(OCc2cn(CCOc3ccc4ccc(=O)oc4c3)nn2)c1` [Compound 12, 7-(2-(4-((2-Isopropyl-5-methylphenoxy)methyl)-1H-1,2,3-triazol-1-yl)ethoxy)-2H-chromen-2-one], the IC50 in the assay on HT-29 cell line was 48.5 ± 9.01 µM; with MCF-7 cell line (Homo sapiens, MCF7, 24 h), 45.7 ± 14.5 µM; with PC-3 cell line it was 50.2 ± 23.7 µM; in the assay on HEK293T cell line, 107 ± 19.5 µM.

Take `CC1CCC(C(C)C)C(OCc2cn(CCCCCCOc3ccc4ccc(=O)oc4c3)nn2)C1` (stereo not drawn) [Compound 39, 7-((6-(4-(((2-Isopropyl-5-methylcyclohexyl)oxy)methyl)-1H-1,2,3-triazol-1-yl)hexyl)oxy)-2H-chromen-2-one]: the IC50 in the assay with HT-29 cell line turned out to be 65.6 ± 24.2 µM.

On to `Cc1ccc(C(C)C)cc1OCCCCCCCOc1ccc2ccc(=O)oc2c1` [Compound 56, 7-((7-(5-Isopropyl-2-methylphenoxy)heptyl)oxy)-2H-chromen-2-one], for which the IC50 is above 80 µM in the assay with HT-29 cell line; 8.26 ± 1.28 µM in the assay with MCF-7 cell line (Homo sapiens, MCF7, 24 h); 24.4 ± 4.12 µM in the assay on PC-3 cell line; above 80 µM with HEK293T cell line.

As to `Cc1ccc(C(C)C)c(OCc2cn(CCCCCCCOc3ccc4ccc(=O)oc4c3)nn2)c1` [Compound 16, 7-((7-(4-((2-Isopropyl-5-methylphenoxy)methyl)-1H-1,2,3-triazol-1-yl)heptyl)oxy)-2H-chromen-2-one], the 50% inhibitory concentration (IC50) in the assay on HT-29 cell line was found to be 21.6 ± 8.31 µM; with MCF-7 cell line (Homo sapiens, MCF7, 24 h), 73.1 ± 55.4 µM; in the assay on PC-3 cell line, 167 ± 30.1 µM; with HEK293T cell line, 142 ± 49.6 µM.

For the compound `Cc1ccc(C(C)C)c(OCCCCCCOc2ccc3ccc(=O)oc3c2)c1` [Compound 47, 7-((6-(2-Isopropyl-5-methylphenoxy)hexyl)oxy)-2H-chromen-2-one], the IC50 is above 80 µM with HT-29 cell line; 18.4 ± 2.63 µM in the assay with MCF-7 cell line (Homo sapiens, MCF7, 24 h); 29.1 ± 6.02 µM with PC-3 cell line; above 80 µM with HEK293T cell line. At hCA IX, this compound registered a Ki of 0.117 µM.

`Cc1ccc(C(C)C)c(OCc2cn(CCCOc3ccc4ccc(=O)oc4c3)nn2)c1` [Compound 13, 7-(3-(4-((2-Isopropyl-5-methylphenoxy)methyl)-1H-1,2,3-triazol-1-yl)propoxy)-2H-chromen-2-one]: in the assay on HT-29 cell line, the 50% inhibitory concentration (IC50) worked out at 48.5 ± 8.73 µM.

Consider `Cc1ccc(C(C)C)c(OCCCCCCCCCCOc2ccc3ccc(=O)oc3c2)c1` [Compound 50, 7-((10-(2-Isopropyl-5-methylphenoxy)decyl)oxy)-2H-chromen-2-one], for which the IC50 in the assay on HT-29 cell line was above 200 µM.

In general, IC50 refers to the concentration at which inhibition is half-maximal. The term Ki denotes the dissociation constant of the complex between target and ligand, obtained from inhibition or displacement.
